Patent US20160222014A1, “COMPOUNDS FOR REGULATING FAK AND/OR SRC PATHWAYS” (ASANA BIOSCIENCES, LLC, priority 2013, published 2016)

Biological target: T1, FAK phosphorylated at Y397 in HEK-FAK cell line overexpressing human FL FAK protein (Homo sapiens, UniProt Q05397)
T1 construct: expressed in transfected cells
Assay: Cell based assay, Phospho-FAK ELISA
Details: HEK stb; read-out: pFAK EC50 (μM) HEK stb
Outline: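 Stable HEK293 line overexpressing full-length human FAK, kept under 0.8 mg/mL Zeocin. In lysates, FAK Y397 autophosphorylation was measured by sandwich ELISA: total-FAK capture antibody, biotinylated pY397-specific detection antibody, streptavidin-HRP with TMB substrate.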

T1 sequence (Q05397 whole entry): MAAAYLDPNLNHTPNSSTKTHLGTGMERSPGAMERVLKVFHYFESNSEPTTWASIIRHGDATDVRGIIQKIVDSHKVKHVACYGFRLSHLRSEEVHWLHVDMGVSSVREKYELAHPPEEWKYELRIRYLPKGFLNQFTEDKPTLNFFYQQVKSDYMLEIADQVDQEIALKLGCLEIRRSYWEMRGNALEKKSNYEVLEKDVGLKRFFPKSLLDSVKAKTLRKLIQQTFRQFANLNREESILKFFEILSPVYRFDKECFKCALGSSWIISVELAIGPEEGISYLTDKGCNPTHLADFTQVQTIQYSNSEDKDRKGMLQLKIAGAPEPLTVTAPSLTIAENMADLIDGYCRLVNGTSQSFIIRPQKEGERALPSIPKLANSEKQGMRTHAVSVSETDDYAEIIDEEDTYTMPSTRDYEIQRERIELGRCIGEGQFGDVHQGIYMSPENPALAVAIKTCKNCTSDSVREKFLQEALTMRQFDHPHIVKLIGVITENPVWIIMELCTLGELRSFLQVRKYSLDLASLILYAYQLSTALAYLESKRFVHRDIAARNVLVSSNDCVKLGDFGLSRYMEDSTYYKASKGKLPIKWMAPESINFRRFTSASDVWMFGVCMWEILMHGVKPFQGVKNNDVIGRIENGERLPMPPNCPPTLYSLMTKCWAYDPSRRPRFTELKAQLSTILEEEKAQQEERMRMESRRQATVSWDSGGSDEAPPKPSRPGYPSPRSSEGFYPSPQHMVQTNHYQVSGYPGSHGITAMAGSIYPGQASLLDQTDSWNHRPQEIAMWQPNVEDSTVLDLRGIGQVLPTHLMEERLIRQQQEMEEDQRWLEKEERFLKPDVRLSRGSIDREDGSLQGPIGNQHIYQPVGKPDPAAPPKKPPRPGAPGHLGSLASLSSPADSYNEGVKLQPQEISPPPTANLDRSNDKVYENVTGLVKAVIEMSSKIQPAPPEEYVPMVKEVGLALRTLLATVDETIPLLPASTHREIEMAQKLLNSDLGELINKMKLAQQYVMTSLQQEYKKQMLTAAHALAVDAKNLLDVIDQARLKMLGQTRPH

Row | EC50 | SMILES
1 | > 1 µM | O=C1CCc2cc(Nc3ncc4cnn(Cc5ccccc5OC(F)F)c4n3)ccc2N1 [Example 21]
2 | > 1 µM | FC(F)Oc1ccccc1Cn1ccc2cnc(Nc3ccc4ncsc4c3)nc21 [Example 36]
3 | > 1 µM | CC(=O)Nc1cccc(Nc2cc3c(cn2)cnn3Cc2ccccc2OC(F)F)c1 [Example 64]
4 | > 1 µM | FC(F)Oc1ccccc1Cn1ncc2cnc(Nc3ccc4ncsc4c3)cc21 [Example 82]
5 | > 1 µM | CN(c1ncccc1Cn1ncc2cnc(Nc3ccc4[nH]c(=O)[nH]c4c3)cc21)S(C)(=O)=O [Example 142]
6 | > 1 µM | CN(c1ncccc1Cn1ccc2cnc(Nc3ccc(NCCO)cc3)nc21)S(C)(=O)=O [Example 201]
7 | > 1 µM | CN(c1ncccc1Cn1ncc2cnc(Nc3ccc4c(c3)CCC(=O)N4)nc21)S(C)(=O)=O [Example 202]
8 | > 1 µM | O=C1CCc2cc(Nc3ncc4ccn(Cc5cccnc5N5CCCS5(=O)=O)c4n3)ccc2N1 [Example 216]
9 | > 1 µM | O=S(=O)(c1cccc2nsnc12)n1ccc2cnc(Nc3ccc(N4CCNCC4)cc3)nc21 [Example 253]
10 | > 1 µM | Cn1cc(Nc2ncc3ccn(S(=O)(=O)c4cccc5cccnc45)c3n2)cn1 [Example 318]
11 | < 0.02 µM | COc1cc(N2CCNCC2)ccc1Nc1cc2c(ccn2S(=O)(=O)c2cccc3cccnc23)cn1 [Example 330, N-(2-Methoxy-4-(piperazin-1-yl)phenyl)-1-(quinolin-8-ylsulfonyl)-1H-pyrrolo[3,2-c]pyridin-6-amine]
12 | < 0.02 µM | Cc1cc(Nc2ncc3cnn(S(=O)(=O)c4cccc5cccnc45)c3n2)ccc1N1CCNCC1 [Example 332]
13 | > 1 µM | COc1ccccc1S(=O)(=O)n1ncc2cnc(Nc3ccc(N4CCNCC4)cc3)nc21 [Example 335]
14 | > 1 µM | CN(c1ncccc1Cn1ccc2cnc(Nc3ccc(N4CCCC4CO)cc3)nc21)S(C)(=O)=O (centres unmarked) [Example 536]
